Measurements published in PubChem BioAssay (NCI).
Where “and” joins values, the source holds several entries; their conditions need not be identical. Equal values may be shown once.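 Briefly, cells in 96-well plates were exposed to five compound concentrations for 48 h, and endpoints were estimated by linear interpolation. Here, GI50 denotes the concentration required for 50% inhibition of growth. TGI denotes the concentration required for complete inhibition of growth.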

Assays:
Test in all cases: NCI anticancer screen, dose series, 48 h
OVCAR-8 ovarian = test system: OVCAR-8 ovarian
TK-10 renal = test system: TK-10 renal
HOP-92 NSCLC = test system: HOP-92 NSCLC
MALME-3M melanoma = test system: MALME-3M melanoma
ACHN renal = test system: ACHN renal
SK-OV-3 ovarian = test system: SK-OV-3 ovarian
U251 CNS = test system: U251 CNS
SF-539 CNS = test system: SF-539 CNS

SMILES	GI50 (OVCAR-8 ovarian)	TGI (OVCAR-8 ovarian) [µM]	GI50 (TK-10 renal) [µM]	TGI (TK-10 renal) [µM]	GI50 (HOP-92 NSCLC) [µM]	TGI (HOP-92 NSCLC) [µM]	GI50 (MALME-3M melanoma)	TGI (MALME-3M melanoma) [µM]	GI50 (ACHN renal) [µM]	TGI (ACHN renal) [µM]	GI50 (SK-OV-3 ovarian)	TGI (SK-OV-3 ovarian) [µM]	GI50 (U251 CNS)	TGI (U251 CNS) [µM]	GI50 (SF-539 CNS)	TGI (SF-539 CNS)
COc1ccc(CN(C)c2ccc(CO)c(Cl)c2)cc1	19.6 µM	> 100	0.179	0.793	4.7	45.3	21 µM	65.6	32.6	> 100	18.8 µM	88.8	4.05 µM	> 87.3	47.7 µM	> 100 µM
O=C1c2ccccc2-c2c1c1ccccc1c(=O)n2CCCNCCCn1ccnc1	2.44 µM	> 37.3	1.89	9.73	0.95	7.57	3.33 µM	13.4	0.252	0.879	3.16 µM	17.7	0.285 µM	1.42	0.908 µM	2.48 µM
COc1cc(OC)c(/C=C/S(=O)(=O)Cc2cnc(OC)c(N)c2)c(OC)c1	< 0.024 µM	> 100	> 100	> 100	–	–	> 100 µM	> 100	< 0.0233	> 100	< 0.0211 µM	> 100	< 0.0224 µM	> 100	–	–
COc1ccc(N2C(=O)CC(Cl)C2=O)cc1 (stereo unspecified)	–	30.2	–	32.9	–	73.7	–	32.8	–	31.7	–	> 100	–	> 100	–	32.5 µM
Nc1c(C(=O)c2ccc(Cl)cc2)sc(Nc2ccccc2)c1-c1nc2ccccc2s1	2.68 µM	> 100	2.13	> 21.4	0.777	4.7	0.751 µM	> 100	1.61	> 100	1.99 µM	19	3.06 µM	36.3	2.63 µM	> 100 µM
CC(C)c1ccc(C(=O)Nc2nc3ccc(O)cc3s2)cc1	1.48 µM	> 100	8.98	> 100	5.18	55	0.684 µM	> 100	0.304	> 100	–	–	9.32 µM	> 100	1.22 µM	11.6 µM
O=c1ccn(C2OC(CO)C(O)C2F)c(=O)[nH]1 (stereo unspecified)	> 1000 µM	> 1000	> 1000	> 1000	> 1000	> 1000	> 1000 µM	> 1000	> 1000	> 1000	> 1000 µM	> 1000	> 1000 µM	> 1000	> 1000 µM	> 1000 µM
COC(=O)c1s/c(=N\C(=S)N(C)C)n(-c2ccccc2)c1C(=O)OC	–	> 100	–	> 100	–	> 100	–	> 100	–	> 100	–	> 100	–	> 100	–	> 100 µM
CC12OC(c3ccccc3)=CC(c3ccc(Cl)cc3)=C1C(c1ccccc1)=CC2=O (stereo unspecified)	> 100 µM	> 100	> 100	> 100	–	–	> 100 µM	> 100	55.4	> 100	> 100 µM	> 100	33.1 µM	> 100	> 100 µM	> 100 µM
Cc1ccccc1NC(=O)N/C(N)=N/c1nc(-c2cccc([N+](=O)[O-])c2)cs1	2.88 µM	15.2	5.33	14.6	2.15	6.6	0.943 µM	4.73	2.52	8.46	2.55 µM	17.8	2.76 µM	10.5	1.65 µM	3.21 µM
COc1cc(C(=O)/C(C)=C/c2c[nH]c3ccccc23)cc(OC)c1OC	0.00358 µM	82.4	–	12.4	0.074	2.33	14.2 µM	> 100	0.00619	> 100	0.00768 µM	76.8	0.00436 µM	10.6	0.0028 µM	0.0129 µM
CC[C@H](NC(=O)[C@H](C)NC)C(=O)N1C[C@@H](O)C[C@H]1Cc1c(-c2[nH]c3cc(F)ccc3c2C[C@@H]2C[C@H](O)CN2C(=O)[C@H](CC)NC(=O)[C@H](C)NC)[nH]c2cc(F)ccc12	31.2 µM	> 100	> 100	> 100	7.7	40.8	> 100 µM	> 100	> 100	> 100	< 0.0104 µM	0.0189	93.2 µM	> 100	< 0.01 µM	0.146 µM
CC(=O)CC(=O)Nc1ccc2ccccc2c1	–	> 100	–	> 100	–	> 100	–	> 100	–	> 100	–	> 100	–	> 100	–	> 100 µM
COC(=O)CCc1cc(OC)c2c(c1)C(C(=O)OC)C(c1ccc(OC)c(OC)c1)O2 (stereo unspecified)	> 100 µM and 39.6 µM	> 100	–	> 100	–	> 100	> 100 µM and 20 µM	> 100	–	> 100	> 100 µM and 39.6 µM	> 100	> 100 µM and 13.3 µM	> 100	> 100 µM and 11.1 µM	> 100 µM and 47.3 µM
CCOC(=O)c1cc(C#N)c(=O)n(/N=C(\C)c2ccncc2)c1O	> 100 µM	> 100	> 100	> 100	> 100	> 100	> 100 µM	> 100	> 100	> 100	> 100 µM	> 100	> 100 µM	> 100	–	–
CCN1CCN(C(=O)[C@]23CC[C@@H](C)[C@H](C)[C@@H]2C2=CC[C@@H]4[C@@]5(C)C/C(=C/c6ccncc6)C(=O)C(C)(C)[C@@H]5CC[C@@]4(C)[C@]2(C)CC3)CC1	2.26 µM	5.75	1.73	3.31	1.14	2.51	1.5 µM	2.83	1.73	3.1	1.83 µM	3.67	1.72 µM	3.38	1.73 µM	3.11 µM
CCOC(=O)C(Cc1c[nH]c2ccc(N)cc12)(NC(C)=O)C(=O)OCC	> 1000 µM	> 1000	> 1000	> 1000	> 1000	> 1000	> 1000 µM	> 1000	> 1000	> 1000	> 1000 µM	> 1000	> 1000 µM	> 1000	> 1000 µM	> 1000 µM

SMILES	GI50 (OVCAR-8 ovarian)	TGI (OVCAR-8 ovarian) [µM]	GI50 (TK-10 renal) [µM]	TGI (TK-10 renal) [µM]	GI50 (HOP-92 NSCLC) [µM]	TGI (HOP-92 NSCLC) [µM]	GI50 (MALME-3M melanoma)	TGI (MALME-3M melanoma) [µM]	GI50 (ACHN renal) [µM]	TGI (ACHN renal) [µM]	GI50 (SK-OV-3 ovarian)	TGI (SK-OV-3 ovarian) [µM]	GI50 (U251 CNS)	TGI (U251 CNS) [µM]	GI50 (SF-539 CNS)	TGI (SF-539 CNS)
O=S(=O)(NC1=NCCN1C(=S)SN1CCn2c1nsc2=S)c1ccc(Br)cc1	25.8 µM	68.8	22	83.5	0.0273	36.7	11.7 µM	56.3	22.2	73.6	37.8 µM	> 100	38.9 µM	> 100	18.6 µM	38.9 µM
CC1=C2[C@@H](CC1)[C@]1(C)O[C@@](C3CCCCC3)(C[C@H]1OC(=O)CO)[C@H]2OC(=O)/C=C/c1ccccc1	0.11 µM	12.9	12.3	26.5	3.68	12.2	12 µM	28	0.0331	4.25	9.71 µM	24.5	7.72 µM	20.5	12.8 µM	27.7 µM
Cn1ccnc1CC(C)(O)c1ccccc1 (stereo unspecified)	–	> 100	–	> 100	–	> 100	–	> 100	–	> 100	–	> 100	–	> 100	–	> 100 µM
COc1cc2c(cc1OCCCOc1cc3c(cc1OC)C(=O)N1C[C@H](F)C[C@H]1C=N3)N=C[C@@H]1C[C@@H](F)CN1C2=O	6.3 µM	18.5	15	28.2	5.18	18	4.28 µM	18.1	10.5	31.8	17.9 µM	32.9	1.96 µM	4.46	–	–
O=C(O[C@H]1CN[C@H](C#Cc2cc3ncnc(Nc4ccc5c(ccn5Cc5cc(F)ccc5F)c4)c3s2)C1)N1CCOCC1	4.11 µM	15.4	0.0724	1.93	0.357	3.9	4.06 µM	9.41	0.575	> 25	0.0183 µM	0.106	3.61 µM	8.25	3.42 µM	7.83 µM
COc1ccc(/C=N\NC(=O)CN2CCN(c3cc4c(cc3F)c(=O)c(C(=O)N/N=C/c3ccc(OC)c(OC)c3)cn4C3CC3)CC2)cc1OC	3.81 µM	81.1	23.6	> 100	2.25	6.9	1.81 µM	3.62	> 100	> 100	3.22 µM	9.67	2.29 µM	6.29	2.38 µM	6.46 µM
Cn1c([N+](=O)[O-])cnc1/C=C1\Oc2ccccc2C1=O	0.186 µM	0.677	1.29	7.77	0.762	3.37	0.626 µM	3.2	0.197	0.632	1.62 µM	6.34	1.19 µM	4.05	1.78 µM	4.74 µM
COc1cc(Nc2nccc(Nc3ccc4c(C)[nH]nc4c3)n2)cc(OC)c1OC	3.39 µM	10.2	0.908	3.88	0.191	1.38	1.4 µM	10.2	1.9	> 25	1.53 µM	6.64	3.92 µM	17.8	1.72 µM	6.11 µM
CC(C)=CCCC(C)c1ccc(C)c2c1OCN(CC1CCNCC1)C2 (stereo unspecified)	18.4 µM	34.5	14.4	29.3	–	–	17.7 µM	35.3	15.3	30	16.7 µM	31.1	2.75 µM	7.61	13.7 µM	27.5 µM
CCC1(CC)C(=O)OC(=O)C1(CC)CC	–	> 100	–	> 100	–	–	–	–	–	> 100	–	> 100	–	> 100	–	> 100 µM
C=C1C(=O)O[C@H]2[C@H]1CC/C(CNC(=O)c1cc3cc(OC)ccc3[nH]1)=C\CC[C@@]1(C)O[C@@H]21	2.06 µM	7.78	1.88	4.61	1.56	3.35	1.62 µM	3.98	1.24	2.84	11.2 µM	23.5	3.35 µM	12.6	1.42 µM	3 µM
NOCC(=O)O	> 100 µM	> 100	> 100	> 100	–	–	> 100 µM	> 100	> 100	> 100	> 100 µM	> 100	> 100 µM	> 100	> 100 µM	> 100 µM
CCN(CC)CCC(=O)NC1c2ccc(Cl)cc2Oc2c(C)cccc21 (stereo unspecified)	–	31.4	–	27.9	–	40.8	–	–	–	–	–	31.8	–	–	–	27.7 µM
CC(O)c1cccc(NCc2c3ccccc3c(=O)n3c2oc2ccccc23)c1 (stereo unspecified)	8.04 µM	36.2	5.7	28	5.4	44.3	–	–	3.51	13.5	4.42 µM	30.6	9.92 µM	21.5	1.37 µM	3.43 µM
CC1(C)C2CCC3=C(CCC4(C)C5C[C@](C)(C(=O)O)CC[C@]5(C)CC[C@]34C)[C@@]2(C)CC[C@@H]1O (stereo partly specified)	–	–	–	32.2	–	38.7	–	31.5	–	29.9	–	35.7	–	27.1	–	> 100 µM
Nc1ccc(N(S(=O)(=O)c2ccccc2)S(=O)(=O)c2ccccc2)c(Cl)c1	–	> 100	–	> 100	–	> 100	–	> 100	–	> 100	–	–	–	> 100	–	> 100 µM
CN1CCN(CCCN)CC1	–	> 100	–	> 100	–	–	–	> 100	–	> 100	–	> 100	–	> 100	–	–
